Where a SMILES comes first, the peptide text is derived from it.
Legend:
dengue virus type 2 = test: Antiviral activity agaisnt DENV-2 strain New Guinea C infected with hamster BHK-21 cells assessed as reduction in viral growth; assay type: functional, organism-based
Ebolavirus [1] = test: Antiviral activity against Ebola virus infected in human HeLa cells assessed as reduction in viral cytopathic effect; assay type: functional, organism-based; conditions: Orthoebolavirus
Hepatitis C virus [2] = test: Antiviral activity against HCV infected in human Huh-7 cells assessed as reduction in viral replication; assay type: functional, organism-based, Hepacivirus hominis
[3] = Inhibition of HCV RNA; assay type: functional, Hepacivirus hominis
Ebolavirus [4] = test: Antiviral activity against pseudotyped Ebola virus infected in HeLa cells assessed as reduction in viral infection incubated for 48 hrs by firefly luciferase assay; assay type: functional, organism-based; conditions: Orthoebolavirus
Hepatitis C virus [5] = test: Antiviral activity against HCV infected in Huh-7 assessed as inhibition of HCV RNA replication at 5 nM relative to control; assay type: functional, Hepacivirus hominis; set-up: scale not given: the % may be the effect or the level left
[6] = biological target: Replicase polyprotein 1ab (Severe acute respiratory syndrome coronavirus 2, UniProt P0DTD1); test: Inhibition of SARS-CoV-2 main protease
[7] = biological target: Replicase polyprotein 1ab (Severe acute respiratory syndrome-related coronavirus, UniProt P0C6X7); test: Inhibition of SARS-CoV-1 Main Protease
[8] = Inhibition of MERS-CoV Main protease; set-up: species or system Middle East respiratory syndrome-related coronavirus
[9] = biological target: Spike glycoprotein/Angiotensin-converting enzyme 2 (Severe acute respiratory syndrome coronavirus 2, UniProt P0DTC2+Q9BYF1); test: Inhibition of SARS-CoV-2 spike protein RBD- human ACE2 interaction incubated for 1 hr by colorimetric ELISA assay
Chain of Spike glycoprotein/Angiotensin-converting enzyme 2 (Q9BYF1 18-805 limits assumed, other chains not shown): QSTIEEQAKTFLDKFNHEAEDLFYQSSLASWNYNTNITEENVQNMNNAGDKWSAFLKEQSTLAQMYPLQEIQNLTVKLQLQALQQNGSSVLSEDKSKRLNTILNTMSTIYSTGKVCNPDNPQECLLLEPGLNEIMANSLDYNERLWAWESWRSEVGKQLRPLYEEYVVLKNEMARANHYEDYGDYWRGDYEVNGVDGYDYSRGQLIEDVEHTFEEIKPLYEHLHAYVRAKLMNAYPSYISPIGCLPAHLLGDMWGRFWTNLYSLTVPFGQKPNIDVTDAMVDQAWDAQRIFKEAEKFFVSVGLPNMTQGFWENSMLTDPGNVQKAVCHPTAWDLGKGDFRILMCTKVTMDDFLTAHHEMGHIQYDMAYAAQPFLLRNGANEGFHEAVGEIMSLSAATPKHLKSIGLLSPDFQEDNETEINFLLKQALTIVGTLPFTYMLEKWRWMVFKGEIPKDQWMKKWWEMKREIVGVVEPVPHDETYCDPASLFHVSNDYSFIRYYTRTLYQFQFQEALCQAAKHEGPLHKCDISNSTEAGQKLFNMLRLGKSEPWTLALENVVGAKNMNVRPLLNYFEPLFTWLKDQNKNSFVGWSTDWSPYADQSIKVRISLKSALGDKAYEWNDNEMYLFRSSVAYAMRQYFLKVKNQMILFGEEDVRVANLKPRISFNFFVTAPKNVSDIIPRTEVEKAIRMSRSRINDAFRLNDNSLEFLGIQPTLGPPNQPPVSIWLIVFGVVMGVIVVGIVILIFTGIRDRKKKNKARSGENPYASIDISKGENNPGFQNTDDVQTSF

Chikungunya virus [10] = test: Antiviral activity against CHIKV infected in HEK293T cells; assay type: functional, organism-based; conditions: HEK-293T
Hepatitis C virus [11] = test: Antiviral activity against HCV infected in human Huh-7.5.1 cells assessed as reduction in viral infection incubated for 48 hrs; assay type: functional, organism-based, Hepacivirus hominis; conditions: Huh-7.5.1, 48 h
Hepatitis C virus [12] = test: Antiviral activity against HCV infected in Huh-7 assessed as reduction in viral RNA replication at 0.5 nM relative to control; assay type: functional, Hepacivirus hominis; set-up: scale not given: the % may be the effect or the level left
Hepatitis C virus [13] = test: Antiviral activity against HCV infected in human Huh7.5.1 cells assessed as decrease in viral infection; assay type: functional, organism-based, Hepacivirus hominis; conditions: Huh-7.5.1
Chikungunya virus [14] = test: Antiviral activity against CHIKV infected in Vero 76 cells assessed as reduction in cytopathic effect; assay type: functional, organism-based
SARS-CoV-2 = test: Antiviral activity against SARS-CoV-2; assay type: functional, organism-based, Severe acute respiratory syndrome coronavirus 2

Clc1ccc(-c2ccc(-c3nc(NCc4cccnc4)nc4ccccc34)s2)cc1
EC50 (dengue virus type 2): 68 nM

COC(=O)c1ccc(COc2ccccc2CN2CCN(C(=O)CNC(=O)CC34CC5CC(CC(C5)C3)C4)CC2)cc1
IC50 (Ebolavirus [1]): 130 nM

O=C(CC12CC3CC(CC(C3)C1)C2)NCC(=O)N1CCN(Cc2ccccc2)CC1
IC50 (Ebolavirus [1]): 1600 nM

C[C@H]1O[C@@H](O[C@H]2CC[C@@]3(C)[C@@H](CC[C@]4(C)[C@@H]3C=CC3=C5CC(C)(C)CC[C@]5(CO)[C@H](O)C[C@]34C)[C@]2(C)CO)[C@H](O)[C@@H](O[C@@H]2O[C@H](CO)[C@@H](O)[C@H](O)[C@H]2O)[C@H]1O
EC50 (Hepatitis C virus [2]): 20.7 µM

COc1cc(C[C@@]2(O)C(=O)OC[C@@H]2Cc2ccc(OC)c(OC)c2)ccc1O
IC50 [3]: 670 nM

FC(C1=Nc2ccccc2N=C(c2ccccc2)C1)C(F)(F)F (stereo not given)
IC50 (Ebolavirus [4]): 10 µM

CSCC[C@H](NC(=O)[C@H](Cc1c[nH]c2ccccc12)NC(=O)[C@@H](NC(=O)[C@H](CS)NC(=O)CNC(=O)[C@H](Cc1ccccc1)NC(=O)[C@H](Cc1c[nH]c2ccccc12)NC(=O)[C@H](CO)NC(=O)CNC(=O)[C@@H](N)CCC(N)=O)[C@@H](C)O)C(=O)N[C@@H](CC(N)=O)C(=O)N[C@@H](CO)C(=O)N[C@H](C(=O)NCC(=O)N[C@@H](Cc1ccccc1)C(=O)O)[C@@H](C)O
Activity (Hepatitis C virus [5]): 50%

Cc1cc2nc3s/c(=C/c4ccc(-c5cccc(C(=O)O)c5)o4)c(=O)n3c2cc1C
IC50 [6]: 55 nM | IC50 [7]: 59 nM | IC50 [8]: 75 nM

CN1C(=O)c2ccccc2[S+]([O-])c2cc([N+](=O)[O-])ccc2S1(=O)=O (stereo not given)
IC50 [9]: 670 nM

COc1cc(OC)c2c(c1)O[C@@]1(c3ccc(Br)cc3)[C@H](c3ccccc3)C[C@@H](O)[C@@]21O
IC50 (Chikungunya virus [10]): 22.4 nM

CC[C@H](C)[C@H](NC(=O)[C@H](C)NC(=O)[C@H](Cc1c[nH]c2ccccc12)NC(=O)[C@H](CO)NC(=O)[C@H](C)N)C(=O)N[C@@H](CCCCN)C(=O)N[C@@H](Cc1c[nH]c2ccccc12)C(=O)N[C@@H](CCC(=O)O)C(=O)N[C@@H](Cc1ccc(O)cc1)C(=O)N[C@H](C(=O)N[C@H](C(=O)N[C@@H](CC(C)C)C(=O)N[C@@H](CC(C)C)C(=O)N[C@@H](Cc1ccccc1)C(=O)N[C@@H](CC(C)C)C(=O)N[C@@H](CC(C)C)C(=O)O)C(C)C)C(C)C (H-ASWAIKWEYVVLLFLL-OH)
IC50 (Hepatitis C virus [11]): 51 µM | Activity (Hepatitis C virus [12]): 60%

CC(C)[C@H](NC(=O)[C@H](Cc1c[nH]c2ccccc12)NC(=O)[C@@H](NC(=O)[C@H](C)N)[C@@H](C)O)C(=O)N[C@@H](CS)C(=O)NCC(=O)N1CCC[C@H]1C(=O)N[C@@H](CS)C(=O)N[C@H](C(=O)O)[C@@H](C)O (H-ATWVCGPCT-OH)
IC50 (Hepatitis C virus [13]): 5.5 µM

COc1ccc2cc3[n+](cc2c1OC)CCc1cc2c(cc1-3)OCO2 [BERBERINE]
EC50 (Hepatitis C virus [2]): 7.87 µM

COc1c(NC(=O)C(=O)c2ccc(OCCN3CCOCC3)c3ccccc23)cc(C(C)(C)C)cc1NS(C)(=O)=O [ITX-5061 FREE BASE]
EC50 (Hepatitis C virus [2]): 0.0001 µM

Cc1ccc(C(=O)Nc2ccc(S(=O)(=O)O)c3cc(S(=O)(=O)O)cc(S(=O)(=O)O)c23)cc1NC(=O)c1cccc(NC(=O)Nc2cccc(C(=O)Nc3cc(C(=O)Nc4ccc(S(=O)(=O)O)c5cc(S(=O)(=O)O)cc(S(=O)(=O)O)c45)ccc3C)c2)c1 [SURAMIN]
IC50 (Chikungunya virus [14]): 5.68 µM

CCOC(=O)c1c(CSc2ccccc2)n(C)c2cc(Br)c(O)c(CN(C)C)c12 [UMIFENOVIR]
IC50 (Chikungunya virus [14]): < 20.9 µM

IVERMECTIN
EC50 (SARS-CoV-2): 4.11 µM

Reference: ChEMBL document CHEMBL5335821, “Antiviral Protein-Protein Interaction Inhibitors” (J Med Chem, 2024)
